The source of these data is patent US10206394B2, “Herbicidal compounds” (Syngenta Participations AG, priority 2014, dated 2019).

Holding throughout (experiment): Glasshouse assay for herbicidal activity (pre- and post-emergence), percentage phytotoxicity
Common to all, as to format: in vivo

The test system of assay [1] is Alopecurus myosuroides (ALOMY). Conditions: Alopecurus myosuroides. The method in brief:
(§1)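 Herbicide was applied to potted plants sown in standard soil, one day after sowing for PRE and after about 12 days for POST. Visual percentage damage ratings followed at 15 DAA (POST) and 20 DAA (PRE).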

For a further assay, the system named is Lolium perenne (LOLPE). Conditions: Lolium perenne. The method in brief: as §1
The next assay relates to Avena fatua (AVEFA). Conditions: Avena fatua. The method, boiled down:
as §1

The subject of assay [2] is Echinochloa crus-galli (ECHCG). Conditions: Echinochloa crus-galli. The method in brief: as §1
Setting [3] is: post-emergence, 360 h, Rate 250 g/ha, post-emergence, visual assessment 15 DAA, 100%=total damage, 0%=no damage, read-out: Post-emergence herbicidal activity (percentage phytotoxicity) ALOMY POST.
Where [4] appears, read: pre-emergence, 480 h, Rate 250 g/ha, pre-emergence, visual assessment 20 DAA, 100%=total damage, 0%=no damage, read-out: Pre-emergence herbicidal activity (percentage phytotoxicity) ALOMY PRE.
Setting [5] is: post-emergence, 360 h, Rate 250 g/ha, post-emergence, visual assessment 15 DAA, 100%=total damage, 0%=no damage, read-out: Post-emergence herbicidal activity (percentage phytotoxicity) LOLPE POST.
The mark [6] stands for this setting: pre-emergence, 480 h, Rate 250 g/ha, pre-emergence, visual assessment 20 DAA, 100%=total damage, 0%=no damage, read-out: Pre-emergence herbicidal activity (percentage phytotoxicity) LOLPE PRE.
The mark [7] stands for this setting: post-emergence, 360 h, Rate 250 g/ha, post-emergence, visual assessment 15 DAA, 100%=total damage, 0%=no damage, read-out: Post-emergence herbicidal activity (percentage phytotoxicity) AVEFA POST.
The mark [8] stands for this setting: pre-emergence, 480 h, Rate 250 g/ha, pre-emergence, visual assessment 20 DAA, 100%=total damage, 0%=no damage, read-out: Pre-emergence herbicidal activity (percentage phytotoxicity) AVEFA PRE.
Setting [9] is: post-emergence, 360 h, Rate 250 g/ha, post-emergence, visual assessment 15 DAA, 100%=total damage, 0%=no damage, read-out: Post-emergence herbicidal activity (percentage phytotoxicity) ECHCG POST.
[10] abbreviates: pre-emergence, 480 h, Rate 250 g/ha, pre-emergence, visual assessment 20 DAA, 100%=total damage, 0%=no damage, read-out: Pre-emergence herbicidal activity (percentage phytotoxicity) ECHCG PRE.
[11] abbreviates: post-emergence, 360 h, POST-emergence, rate 250 g/ha, visual score 15 DAA (100%=total damage, 0%=no damage), read-out: Post-emergence herbicidal activity (percentage phytotoxicity) ALOMY POST.
The mark [12] stands for this setting: pre-emergence, 480 h, PRE-emergence, rate 250 g/ha, visual score 20 DAA (100%=total damage, 0%=no damage), read-out: Pre-emergence herbicidal activity (percentage phytotoxicity) ALOMY PRE.
The mark [13] stands for this setting: post-emergence, 360 h, POST-emergence, rate 250 g/ha, visual score 15 DAA (100%=total damage, 0%=no damage), read-out: Post-emergence herbicidal activity (percentage phytotoxicity) LOLPE POST.
[14] abbreviates: pre-emergence, 480 h, PRE-emergence, rate 250 g/ha, visual score 20 DAA (100%=total damage, 0%=no damage), read-out: Pre-emergence herbicidal activity (percentage phytotoxicity) LOLPE PRE.
The mark [15] stands for this setting: post-emergence, 360 h, POST-emergence, rate 250 g/ha, visual score 15 DAA (100%=total damage, 0%=no damage), read-out: Post-emergence herbicidal activity (percentage phytotoxicity) AVEFA POST.
Where [16] appears, read: pre-emergence, 480 h, PRE-emergence, rate 250 g/ha, visual score 20 DAA (100%=total damage, 0%=no damage), read-out: Pre-emergence herbicidal activity (percentage phytotoxicity) AVEFA PRE.
Where [17] appears, read: post-emergence, 360 h, POST-emergence, rate 250 g/ha, visual score 15 DAA (100%=total damage, 0%=no damage), read-out: Post-emergence herbicidal activity (percentage phytotoxicity) ECHCG POST.
[18] abbreviates: pre-emergence, 480 h, PRE-emergence, rate 250 g/ha, visual score 20 DAA (100%=total damage, 0%=no damage), read-out: Pre-emergence herbicidal activity (percentage phytotoxicity) ECHCG PRE.
The mark [19] stands for this setting: post-emergence, 360 h, Rate 250 g/ha, post-emergence, assessed visually 15 DAA, 100%=total damage, 0%=no damage, read-out: Post-emergence herbicidal activity (percentage phytotoxicity) ALOMY POST.
Where [20] appears, read: pre-emergence, 480 h, Rate 250 g/ha, pre-emergence, assessed visually 20 DAA, 100%=total damage, 0%=no damage, read-out: Pre-emergence herbicidal activity (percentage phytotoxicity) ALOMY PRE.
Setting [21] is: post-emergence, 360 h, Rate 250 g/ha, post-emergence, assessed visually 15 DAA, 100%=total damage, 0%=no damage, read-out: Post-emergence herbicidal activity (percentage phytotoxicity) LOLPE POST.
[22] abbreviates: pre-emergence, 480 h, Rate 250 g/ha, pre-emergence, assessed visually 20 DAA, 100%=total damage, 0%=no damage, read-out: Pre-emergence herbicidal activity (percentage phytotoxicity) LOLPE PRE.
[23] abbreviates: post-emergence, 360 h, Rate 250 g/ha, post-emergence, assessed visually 15 DAA, 100%=total damage, 0%=no damage, read-out: Post-emergence herbicidal activity (percentage phytotoxicity) AVEFA POST.
[24] abbreviates: pre-emergence, 480 h, Rate 250 g/ha, pre-emergence, assessed visually 20 DAA, 100%=total damage, 0%=no damage, read-out: Pre-emergence herbicidal activity (percentage phytotoxicity) AVEFA PRE.
Where [25] appears, read: post-emergence, 360 h, Rate 250 g/ha, post-emergence, assessed visually 15 DAA, 100%=total damage, 0%=no damage, read-out: Post-emergence herbicidal activity (percentage phytotoxicity) ECHCG POST.
The mark [26] stands for this setting: pre-emergence, 480 h, Rate 250 g/ha, pre-emergence, assessed visually 20 DAA, 100%=total damage, 0%=no damage, read-out: Pre-emergence herbicidal activity (percentage phytotoxicity) ECHCG PRE.

Where two headings read alike, the source gives them in different places.

Consider `Cc1cc(-c2ncc(Cl)cn2)cc(C)c1C1C(=O)CC(CC(=O)N(C)Cc2cccc(F)c2)C1=O` (centres unmarked) [Compound B338], for which the pest or weed control at 250 g/ha in assay [1] (setting [3]) was 100%; in assay [1] (setting [4]), 100%; in the assay with Lolium perenne (LOLPE) (setting [5]), 90%; with Lolium perenne (LOLPE) (setting [6]), 100%; in the assay on Avena fatua (AVEFA) (setting [7]), 100%; with Avena fatua (AVEFA) (setting [8]) it was 80%. Further, the pest or weed control at 250 g/ha in assay [2] (setting [9]) and in assay [2] (setting [10]) was 100% throughout.
In the case of `CCNC(=O)CC1CC(=O)C(c2c(C)cc(-c3ncc(Cl)cn3)cc2C)C1=O` (centres unmarked) [Compound B305], the pest or weed control at 250 g/ha (in assay [1] (setting [11]); in assay [1] (setting [12]); with Lolium perenne (LOLPE) (setting [13]); in the assay with Lolium perenne (LOLPE) (setting [14]); with Avena fatua (AVEFA) (setting [15]); with Avena fatua (AVEFA) (setting [16])) was 100% throughout. Further, the pest or weed control at 250 g/ha in assay [2] (setting [17]) and in assay [2] (setting [18]) was 100% each time.
Turning to `Cc1cc(C)c(C2C(=O)CC(CC(=O)NCc3ccc(OC(F)(F)F)cc3)C2=O)c(C)c1` (centres unmarked) [Compound A92], the pest or weed control at 250 g/ha in assay [1] (setting [19]) amounted to 60%; in assay [1] (setting [20]) it was 70%; in the assay with Lolium perenne (LOLPE) (setting [21]) it was 40%; with Lolium perenne (LOLPE) (setting [22]) it was 90%; in the assay on Avena fatua (AVEFA) (setting [23]), 70%; with Avena fatua (AVEFA) (setting [24]) it was 60%. Moreover, the pest or weed control at 250 g/ha in assay [2] (setting [25]) and in assay [2] (setting [26]) was 80% in each case.
Turning to `Cc1cc(Br)cc(C)c1C1C(=O)CC(CC(=O)NCc2cccc(F)c2)C1=O` (centres unmarked) [Compound B130], the pest or weed control at 250 g/ha was found to be 90% in assay [1] (post-emergence, 360 h, 250 g/ha, post-emergence, 15 DAA, visual assessment (100%=total damage, 0%=no damage), read-out: Post-emergence herbicidal activity (percentage phytotoxicity) ALOMY POST); 80% in assay [1] (pre-emergence, 480 h, 250 g/ha, pre-emergence, 20 DAA, visual assessment (100%=total damage, 0%=no damage), read-out: Pre-emergence herbicidal activity (percentage phytotoxicity) ALOMY PRE); 100% with Lolium perenne (LOLPE) (post-emergence, 360 h, 250 g/ha, post-emergence, 15 DAA, visual assessment (100%=total damage, 0%=no damage), read-out: Post-emergence herbicidal activity (percentage phytotoxicity) LOLPE POST); 80% with Lolium perenne (LOLPE) (pre-emergence, 480 h, 250 g/ha, pre-emergence, 20 DAA, visual assessment (100%=total damage, 0%=no damage), read-out: Pre-emergence herbicidal activity (percentage phytotoxicity) LOLPE PRE); 90% with Avena fatua (AVEFA) (post-emergence, 360 h, 250 g/ha, post-emergence, 15 DAA, visual assessment (100%=total damage, 0%=no damage), read-out: Post-emergence herbicidal activity (percentage phytotoxicity) AVEFA POST); 40% in the assay on Avena fatua (AVEFA) (pre-emergence, 480 h, 250 g/ha, pre-emergence, 20 DAA, visual assessment (100%=total damage, 0%=no damage), read-out: Pre-emergence herbicidal activity (percentage phytotoxicity) AVEFA PRE). Moreover, the pest or weed control at 250 g/ha in assay [2] (post-emergence, 360 h, 250 g/ha, post-emergence, 15 DAA, visual assessment (100%=total damage, 0%=no damage), read-out: Post-emergence herbicidal activity (percentage phytotoxicity) ECHCG POST) is 90%; in assay [2] (pre-emergence, 480 h, 250 g/ha, pre-emergence, 20 DAA, visual assessment (100%=total damage, 0%=no damage), read-out: Pre-emergence herbicidal activity (percentage phytotoxicity) ECHCG PRE) it was 70%.
On to `Cc1cc(-c2ncc(F)cc2F)cc(C)c1C1C(=O)CC(CC(=O)NOCc2ccccc2)C1=O` (centres unmarked) [Compound B402], for which the pest or weed control at 250 g/ha in assay [1] (setting [3]) was 90%; in assay [1] (setting [4]), 60%; in the assay on Lolium perenne (LOLPE) (setting [5]) it was 90%; with Lolium perenne (LOLPE) (setting [6]), 80%; with Avena fatua (AVEFA) (setting [7]), 100%; in the assay with Avena fatua (AVEFA) (setting [8]), 70%. Further, the pest or weed control at 250 g/ha stood at 100% in assay [2] (setting [9]) and 80% in assay [2] (setting [10]).
`Cc1cnc(CNC(=O)CC2CC(=O)C(c3c(C)cc(-c4ncc(Cl)cc4F)cc3C)C2=O)s1` (centres unmarked) [Compound A123]: the pest or weed control at 250 g/ha is 80% in assay [1] (setting [19]); 60% in assay [1] (setting [20]); 90% in the assay with Lolium perenne (LOLPE) (setting [21]); 80% in the assay on Lolium perenne (LOLPE) (setting [22]); 80% in the assay on Avena fatua (AVEFA) (setting [23]); 70% in the assay on Avena fatua (AVEFA) (setting [24]). The figures for the pest or weed control at 250 g/ha in assay [2] (setting [25]) and in assay [2] (setting [26]) were 100% and 90%, respectively.
With `COCCCNC(=O)CC1CC(=O)C(c2c(C)cc(-n3cc(Cl)cn3)cc2C)C1=O` (centres unmarked) [Compound B310], the pest or weed control at 250 g/ha turned out to be 90% in assay [1] (setting [11]); 90% in assay [1] (setting [12]); 70% with Lolium perenne (LOLPE) (setting [13]); 90% in the assay on Lolium perenne (LOLPE) (setting [14]); 100% in the assay on Avena fatua (AVEFA) (setting [15]); 80% in the assay with Avena fatua (AVEFA) (setting [16]). In addition, the pest or weed control at 250 g/ha in assay [2] (setting [17]) was found to be 100%; in assay [2] (setting [18]) it was 90%.
